Measured values from ChEMBL document CHEMBL1201862, “PubChem BioAssay data set” (2004).
One block for each molecule: values may come before it. Calls of active or inactive are those of the source.

Assays:
[1] = target: Delta-type opioid receptor (Homo sapiens, UniProt P41143); test: Counterscreen for agonists of heterodimerization of the mu 1 (OPRM1) and delta 1 (OPRD1) opioid receptors: Luminescence-based cell-based high throughput dose response assay to identify agonists of OPRD1 homodimerization. [Related pubchem assays (depositor defined):AID504326, AID504355, AID504692, AID504904, AID504905]; type: functional
Delta-type opioid receptor, sequence (P41143 whole entry): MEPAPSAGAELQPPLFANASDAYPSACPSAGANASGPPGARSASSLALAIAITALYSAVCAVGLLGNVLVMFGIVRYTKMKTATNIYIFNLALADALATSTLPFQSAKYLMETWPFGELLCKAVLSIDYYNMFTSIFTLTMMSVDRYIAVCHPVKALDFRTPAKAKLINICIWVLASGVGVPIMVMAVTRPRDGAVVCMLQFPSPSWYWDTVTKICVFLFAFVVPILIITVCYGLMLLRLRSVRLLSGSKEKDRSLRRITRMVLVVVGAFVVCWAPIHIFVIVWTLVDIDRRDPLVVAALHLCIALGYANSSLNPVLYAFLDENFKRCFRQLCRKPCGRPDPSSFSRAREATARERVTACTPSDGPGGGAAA

[2] = target: Mu-type opioid receptor (Homo sapiens, UniProt P35372); test: Counterscreen for agonists of heterodimerization of the mu 1 (OPRM1) and delta 1 (OPRD1) opioid receptors: Luminescence-based cell-based high throughput dose response assay to identify agonists of OPRM1 homodimerization.; type: functional;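 also: U2OS cells expressing OPRM1 and beta-arrestin as split beta-galactosidase partners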
Mu-type opioid receptor, sequence (P35372 whole entry): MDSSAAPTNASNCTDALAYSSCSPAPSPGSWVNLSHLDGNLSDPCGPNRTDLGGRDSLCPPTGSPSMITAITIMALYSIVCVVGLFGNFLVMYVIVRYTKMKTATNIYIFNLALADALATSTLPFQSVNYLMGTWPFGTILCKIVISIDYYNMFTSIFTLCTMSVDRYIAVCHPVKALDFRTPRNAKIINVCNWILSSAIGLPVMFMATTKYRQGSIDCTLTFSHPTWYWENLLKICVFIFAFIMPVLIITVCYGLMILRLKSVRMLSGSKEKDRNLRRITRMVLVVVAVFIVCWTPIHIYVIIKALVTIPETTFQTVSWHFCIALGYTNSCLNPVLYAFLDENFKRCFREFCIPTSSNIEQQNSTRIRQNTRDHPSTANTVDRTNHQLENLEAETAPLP

[3] = target: 5-hydroxytryptamine receptor 5A (Homo sapiens, UniProt P47898); test: Counterscreen for agonists of OPRM1-OPRD1 heterodimerization: luminescence-based cell-based high throughput dose response assay to identify agonists of 5-hydroxytryptamine (serotonin) 5A receptor (HTR5A). [Related pubchem assays (depositor defined):AID504326, AID504355, AID504692, AID504904, AID504905]; type: functional
5-hydroxytryptamine receptor 5A, sequence (P47898 whole entry): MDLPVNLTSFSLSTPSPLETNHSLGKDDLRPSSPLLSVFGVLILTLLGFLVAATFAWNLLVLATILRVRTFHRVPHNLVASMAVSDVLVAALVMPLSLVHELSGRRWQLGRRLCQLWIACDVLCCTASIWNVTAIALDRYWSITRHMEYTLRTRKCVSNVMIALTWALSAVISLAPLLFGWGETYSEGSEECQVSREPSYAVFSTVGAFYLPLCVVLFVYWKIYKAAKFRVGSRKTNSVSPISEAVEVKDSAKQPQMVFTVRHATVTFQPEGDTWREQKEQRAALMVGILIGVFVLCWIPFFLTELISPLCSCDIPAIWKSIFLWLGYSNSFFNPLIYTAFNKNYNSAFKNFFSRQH

[4] = target: T1, DNA repair protein RAD52 homolog (Homo sapiens, UniProt P43351); type: functional, biochemical
T1 sequence (P43351 whole entry): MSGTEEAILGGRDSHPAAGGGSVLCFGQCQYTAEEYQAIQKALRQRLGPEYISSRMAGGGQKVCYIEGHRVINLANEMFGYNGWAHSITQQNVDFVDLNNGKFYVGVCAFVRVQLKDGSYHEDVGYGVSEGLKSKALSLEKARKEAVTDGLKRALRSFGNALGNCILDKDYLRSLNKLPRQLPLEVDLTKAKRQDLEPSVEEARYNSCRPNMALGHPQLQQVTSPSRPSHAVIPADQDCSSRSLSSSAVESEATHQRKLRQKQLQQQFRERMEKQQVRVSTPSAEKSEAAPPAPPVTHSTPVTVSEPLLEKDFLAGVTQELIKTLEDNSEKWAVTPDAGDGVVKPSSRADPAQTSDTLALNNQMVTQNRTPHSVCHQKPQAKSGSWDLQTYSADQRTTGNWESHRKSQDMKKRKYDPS

[5] = target: Hexokinase-1 (Homo sapiens, UniProt P19367); test: HK1 enzyme inhibition by HKDC1 hits, SAR follow-up, selectivity assay for HKDC1 inhibitor project, biochemical, set 2, resazurin fluorescence coupled readout (AID 588356); type: functional
Hexokinase-1, sequence (P19367 whole entry): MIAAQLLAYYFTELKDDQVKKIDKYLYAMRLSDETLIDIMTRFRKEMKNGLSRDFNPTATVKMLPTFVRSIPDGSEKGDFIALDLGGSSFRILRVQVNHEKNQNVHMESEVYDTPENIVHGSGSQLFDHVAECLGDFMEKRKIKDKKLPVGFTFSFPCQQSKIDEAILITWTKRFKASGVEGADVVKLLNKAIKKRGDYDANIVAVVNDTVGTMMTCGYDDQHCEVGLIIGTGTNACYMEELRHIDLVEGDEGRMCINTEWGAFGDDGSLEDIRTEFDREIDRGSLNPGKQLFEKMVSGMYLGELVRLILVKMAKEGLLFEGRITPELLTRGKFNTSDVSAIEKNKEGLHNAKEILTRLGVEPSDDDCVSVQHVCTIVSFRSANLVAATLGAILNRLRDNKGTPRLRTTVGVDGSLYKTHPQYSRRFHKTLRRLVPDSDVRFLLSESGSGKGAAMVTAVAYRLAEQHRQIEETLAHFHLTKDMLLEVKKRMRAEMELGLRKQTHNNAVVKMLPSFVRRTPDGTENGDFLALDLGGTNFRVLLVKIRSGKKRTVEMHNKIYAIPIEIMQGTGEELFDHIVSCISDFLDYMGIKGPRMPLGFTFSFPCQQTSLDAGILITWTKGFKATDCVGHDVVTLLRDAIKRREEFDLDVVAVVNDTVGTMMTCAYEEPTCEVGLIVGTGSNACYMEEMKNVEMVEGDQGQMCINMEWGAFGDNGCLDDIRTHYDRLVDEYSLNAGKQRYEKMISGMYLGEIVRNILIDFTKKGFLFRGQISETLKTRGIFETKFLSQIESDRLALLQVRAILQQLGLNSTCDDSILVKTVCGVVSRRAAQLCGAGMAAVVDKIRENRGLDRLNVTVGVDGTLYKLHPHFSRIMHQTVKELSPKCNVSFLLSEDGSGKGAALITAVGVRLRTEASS

[6] = target: T2, Hexokinase HKDC1 (Homo sapiens, UniProt Q2TB90); test: HKDC1 hexokinase inhibitors, SAR follow-up, biochemical, set 2 (AID 588355); type: functional
T2 sequence (Q2TB90 whole entry): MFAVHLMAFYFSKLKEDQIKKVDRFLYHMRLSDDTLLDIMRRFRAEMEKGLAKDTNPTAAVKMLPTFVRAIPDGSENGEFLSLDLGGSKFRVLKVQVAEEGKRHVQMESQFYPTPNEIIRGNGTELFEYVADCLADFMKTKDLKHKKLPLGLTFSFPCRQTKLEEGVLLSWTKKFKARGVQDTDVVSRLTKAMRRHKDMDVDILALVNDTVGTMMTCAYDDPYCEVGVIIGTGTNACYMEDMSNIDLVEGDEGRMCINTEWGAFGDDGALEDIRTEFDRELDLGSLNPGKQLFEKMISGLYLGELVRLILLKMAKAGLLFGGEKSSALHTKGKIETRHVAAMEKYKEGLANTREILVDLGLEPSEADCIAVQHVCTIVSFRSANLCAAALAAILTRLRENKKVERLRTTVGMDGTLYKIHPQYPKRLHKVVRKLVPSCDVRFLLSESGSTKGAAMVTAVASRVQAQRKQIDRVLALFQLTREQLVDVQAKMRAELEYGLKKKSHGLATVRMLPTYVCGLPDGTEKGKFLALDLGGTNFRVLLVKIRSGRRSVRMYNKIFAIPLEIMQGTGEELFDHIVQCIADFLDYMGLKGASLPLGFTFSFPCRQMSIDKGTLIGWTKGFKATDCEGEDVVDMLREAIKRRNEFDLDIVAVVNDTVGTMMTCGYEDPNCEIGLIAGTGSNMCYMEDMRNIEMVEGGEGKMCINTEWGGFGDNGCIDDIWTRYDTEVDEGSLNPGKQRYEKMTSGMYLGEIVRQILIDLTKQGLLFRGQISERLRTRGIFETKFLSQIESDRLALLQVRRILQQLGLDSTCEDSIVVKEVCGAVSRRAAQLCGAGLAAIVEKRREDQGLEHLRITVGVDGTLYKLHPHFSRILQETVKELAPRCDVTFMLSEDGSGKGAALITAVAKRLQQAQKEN

[7] = test system: Escherichia coli; test: microbe, parasite or virus in culture
[8] = target: Cytochrome P450 2C19 (Homo sapiens, UniProt P33261); test: Cytochrome panel assay with activity outcomes. Panel member name: p450-cyp2c19 Compounds with AC50 equal or less than 10 uM are considered active; type: functional; conditions: read-out: AC50
Cytochrome P450 2C19, sequence (P33261 whole entry): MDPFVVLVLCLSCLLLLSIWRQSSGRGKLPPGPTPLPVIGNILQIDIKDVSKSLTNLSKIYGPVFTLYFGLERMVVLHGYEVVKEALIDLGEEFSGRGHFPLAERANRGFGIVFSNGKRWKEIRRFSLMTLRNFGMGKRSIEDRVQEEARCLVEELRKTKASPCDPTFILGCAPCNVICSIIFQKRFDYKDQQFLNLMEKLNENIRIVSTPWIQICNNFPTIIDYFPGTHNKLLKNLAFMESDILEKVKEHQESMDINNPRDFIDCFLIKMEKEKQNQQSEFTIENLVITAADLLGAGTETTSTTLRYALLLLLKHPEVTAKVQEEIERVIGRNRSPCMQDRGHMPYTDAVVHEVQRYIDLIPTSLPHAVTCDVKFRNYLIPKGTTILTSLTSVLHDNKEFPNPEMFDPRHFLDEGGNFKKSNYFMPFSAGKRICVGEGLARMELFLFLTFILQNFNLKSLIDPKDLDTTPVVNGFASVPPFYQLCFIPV

[9] = target: T3, Cytochrome P450 1A2 (Homo sapiens, UniProt P05177);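 also: PubChem cytochrome P450 panel assay, CYP1A2 panel member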
T3 sequence (P05177 whole entry): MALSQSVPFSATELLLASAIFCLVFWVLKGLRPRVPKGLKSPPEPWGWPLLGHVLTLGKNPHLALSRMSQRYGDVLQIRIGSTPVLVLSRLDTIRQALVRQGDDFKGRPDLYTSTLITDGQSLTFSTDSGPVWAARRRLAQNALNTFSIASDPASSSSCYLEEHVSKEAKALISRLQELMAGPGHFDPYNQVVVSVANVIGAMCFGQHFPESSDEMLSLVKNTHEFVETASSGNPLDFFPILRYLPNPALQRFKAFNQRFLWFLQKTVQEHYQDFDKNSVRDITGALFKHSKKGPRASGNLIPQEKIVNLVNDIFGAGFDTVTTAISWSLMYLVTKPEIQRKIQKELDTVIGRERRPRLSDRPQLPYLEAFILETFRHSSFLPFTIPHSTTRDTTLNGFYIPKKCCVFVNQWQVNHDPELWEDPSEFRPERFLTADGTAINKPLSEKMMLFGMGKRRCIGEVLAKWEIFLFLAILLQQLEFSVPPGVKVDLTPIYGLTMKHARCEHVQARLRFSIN

[10] = target: Voltage-gated inwardly rectifying potassium channel KCNH2 (Homo sapiens, UniProt Q12809); conditions: Potency;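 also: confirmatory quantitative high-throughput screen measuring inhibition of hERG channel activity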
Voltage-gated inwardly rectifying potassium channel KCNH2, sequence (Q12809 whole entry): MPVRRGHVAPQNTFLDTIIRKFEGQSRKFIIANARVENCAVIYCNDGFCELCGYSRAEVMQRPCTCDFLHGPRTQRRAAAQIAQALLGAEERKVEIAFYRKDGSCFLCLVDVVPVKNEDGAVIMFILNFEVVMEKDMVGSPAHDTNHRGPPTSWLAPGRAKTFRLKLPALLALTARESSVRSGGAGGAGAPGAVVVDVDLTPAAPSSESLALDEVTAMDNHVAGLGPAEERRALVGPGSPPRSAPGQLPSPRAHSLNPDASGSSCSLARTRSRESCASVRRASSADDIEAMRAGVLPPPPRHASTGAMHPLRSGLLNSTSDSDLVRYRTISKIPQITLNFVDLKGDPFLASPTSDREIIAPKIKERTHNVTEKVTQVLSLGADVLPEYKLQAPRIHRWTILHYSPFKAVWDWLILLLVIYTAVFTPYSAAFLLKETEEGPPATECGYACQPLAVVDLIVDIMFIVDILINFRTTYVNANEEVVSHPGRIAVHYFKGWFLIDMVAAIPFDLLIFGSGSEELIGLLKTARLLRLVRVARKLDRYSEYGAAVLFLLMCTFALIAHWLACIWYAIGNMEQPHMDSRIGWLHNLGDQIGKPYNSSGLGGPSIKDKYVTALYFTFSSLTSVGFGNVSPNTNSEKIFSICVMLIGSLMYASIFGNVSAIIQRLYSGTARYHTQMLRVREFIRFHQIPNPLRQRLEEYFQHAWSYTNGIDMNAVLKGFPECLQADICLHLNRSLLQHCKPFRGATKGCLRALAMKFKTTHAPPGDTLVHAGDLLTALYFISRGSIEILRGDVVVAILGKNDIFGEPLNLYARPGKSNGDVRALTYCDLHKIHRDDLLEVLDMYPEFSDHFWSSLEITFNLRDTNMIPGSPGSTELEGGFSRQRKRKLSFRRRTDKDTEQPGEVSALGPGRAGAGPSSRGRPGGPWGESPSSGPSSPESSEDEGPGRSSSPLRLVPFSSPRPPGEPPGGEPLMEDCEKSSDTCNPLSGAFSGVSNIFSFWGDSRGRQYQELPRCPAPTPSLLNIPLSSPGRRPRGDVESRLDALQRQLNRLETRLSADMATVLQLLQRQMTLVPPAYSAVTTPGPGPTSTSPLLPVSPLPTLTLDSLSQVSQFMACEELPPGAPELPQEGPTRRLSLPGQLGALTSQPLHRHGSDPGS

EC50 [1]: > 92.5 µM (inactive) | EC50 [2]: > 92.5 µM (inactive) | EC50 [3]: > 92.5 µM (inactive) | AC50 [4]: 21.1 µM (active)
SMILES: CN(C)CCCN(C(=O)c1ccc(Br)s1)c1nc2cc3c(cc2s1)OCCO3

IC50 [5]: > 80 µM (inactive) | IC50 [6]: > 80 µM (inactive)
SMILES: Cc1ccccc1N1C(=O)c2ccccc2C1Nc1ccccc1 (stereo not given)

SMILES: O=[N+]([O-])c1cccc(COc2cccc(CN3CCCCC3)c2)c1
AC50 [7]: 21.2 µM (active)

AC50 [8]: 1.58 µM (inconclusive) | AC50 [9]: 25.1 µM (inconclusive)
SMILES: COc1ccc2c(c1)c(CC(=O)N1CCOCC1)c(C)n2C(=O)c1ccc(Cl)cc1 [INDOMETHACIN MORPHOLINYLAMIDE]
AC50 [10]: 35.5 µM (inconclusive)
